The values below come from ChEMBL document CHEMBL1156829 (Proc Natl Acad Sci U S A, 2008).

Structures are written as SMILES. Several values for one entry are separate records, joined by “and”; a condition that tells them apart may be missing. Equal entries are not always repeated. A value given as a limit tells only on which side of the number the result lay.

What is called EC50 is the concentration that produces a half-maximal response. As usually defined, the CC50 is the concentration giving 50% cytotoxicity.

Data set [1] deals with Plasmodium falciparum. The data set is described as follows: NOVARTIS: Inhibition of Plasmodium falciparum W2 (drug-resistant) proliferation in erythrocyte-based infection assay. The data set is classed as functional, organism-based. The note with it: read-out: EC50.
Data set [2] has as its system Plasmodium falciparum. The data set is described as follows: NOVARTIS: Inhibition of Plasmodium falciparum 3D7 (drug-susceptible) proliferation in erythrocyte-based infection assay. Format: functional, organism-based.
A further data set deals with Huh-7. The data set is described as follows: NOVARTIS: Cytotoxicity against human hepatocellular carcinoma cell line (Huh7). To be noted: huh-7, read-out: CC50. Format: toxicity, cell-based.

Turning to `Cc1[nH]c2ccccc2c1/C=C/c1cc[n+](C)cc1`, the concentration for a half-maximal effect (EC50) is 215 nM in the data set with Plasmodium falciparum [1] and 175 nM with Plasmodium falciparum [2]. Also, the cytotoxic concentration (CC50) with Huh-7 was > 100000 nM.
As for `CC[n+]1c(/C=C/c2ccc(N(C)C)cc2)sc2cc(NC(C)=O)ccc21`, the EC50 was 686 nM and 341 nM with Plasmodium falciparum [1]; 1500 nM in the data set with Plasmodium falciparum [2]; 953 nM with Plasmodium falciparum [2] (Plasmodium falciparum, 3D7). For the same molecule, the CC50 with Huh-7 is > 100000 nM.
Turning to `CCN1/C(=C/c2sc3ccccc3[n+]2CC)Sc2ccccc21` [listing 1 of 2 here], the half-maximal effective concentration (EC50) was found to be 248 nM in the data set on Plasmodium falciparum [1] and 557 nM in the data set with Plasmodium falciparum [2]. The CC50 in the data set on Huh-7 was 32600 nM.
For `CCN1/C(=C/c2sc3ccccc3[n+]2CC)Sc2ccccc21` [listing 2 of 2 here], the concentration giving a half-maximal response (EC50) came to 10.8 nM in the data set with Plasmodium falciparum [1] and 187 nM with Plasmodium falciparum [2]. Further, the CC50 in the data set on Huh-7 worked out at 11100 nM.
With `CN(C)c1ccc(C=CC=Cc2cc[n+](C)cc2)cc1`, the EC50 with Plasmodium falciparum [1] (Plasmodium falciparum, W2) was found to be 506 nM; with Plasmodium falciparum [2] (Plasmodium falciparum, 3D7), 640 nM. For the same molecule, in the data set on Huh-7, the CC50 is > 10000 nM.
Consider `CCN1/C(=C/c2cccc[n+]2C)C=Cc2ccccc21`, for which the EC50 with Plasmodium falciparum [1] (Plasmodium falciparum, W2) worked out at 522 nM; in the data set on Plasmodium falciparum [1], 572 nM; in the data set on Plasmodium falciparum [2], 401 nM; in the data set on Plasmodium falciparum [2] (Plasmodium falciparum, 3D7) it was 667 nM. Besides, the half-maximal cytotoxic concentration (CC50) in the data set with Huh-7 is > 64500 nM.
Turning to `C[n+]1c(C=CNc2ccccc2)n(-c2ccccc2)c2ccc(Cl)cc21` [listing 1 of 2 here], the EC50 with Plasmodium falciparum [1] was < 14.5 nM; with Plasmodium falciparum [2] it was 182 nM. In addition, the half-maximal cytotoxic concentration (CC50) in the data set on Huh-7 is > 10000 nM.
Turning to `CCN1/C(=C/c2cccc[n+]2C)C=Cc2cc(C)ccc21`, the EC50 stood at 596 nM in the data set with Plasmodium falciparum [1] (Plasmodium falciparum, W2); 959 nM in the data set with Plasmodium falciparum [1]; 803 nM in the data set with Plasmodium falciparum [2]; 425 nM with Plasmodium falciparum [2] (Plasmodium falciparum, 3D7). Moreover, the 50% cytotoxic concentration (CC50) with Huh-7 was > 100000 nM.
Consider `COc1ccc(/C=C2/SC(=Nc3ccccc3)NC2=O)c(OC)c1`, for which the 50% effective concentration (EC50) in the data set on Plasmodium falciparum [1] (Plasmodium falciparum, W2) turned out to be 428 nM; in the data set with Plasmodium falciparum [1], 250 nM; in the data set on Plasmodium falciparum [2], 660 nM; in the data set with Plasmodium falciparum [2] (Plasmodium falciparum, 3D7), 539 nM. Further, the cytotoxic concentration (CC50) in the data set on Huh-7 is > 100000 nM.
As to `CC[n+]1c(C=CN(C)c2ccccc2)sc2ccc(OC)cc21`, the concentration for a half-maximal effect (EC50) was 400 nM with Plasmodium falciparum [1] (Plasmodium falciparum, W2) and 920 nM in the data set with Plasmodium falciparum [2] (Plasmodium falciparum, 3D7). Further, the half-maximal cytotoxic concentration (CC50) in the data set with Huh-7 was > 10000 nM.
For `C[n+]1ccccc1C=Cc1cc(Br)ccc1O` [listing 1 of 2 here] the same measures were 441 nM, 302 nM and > 10000 nM.
In the case of `CN1/C(=C/c2cccc[n+]2C)C=Cc2ccccc21`, the half-maximal effective concentration (EC50) in the data set with Plasmodium falciparum [1] (Plasmodium falciparum, W2) came out at 526 nM; in the data set with Plasmodium falciparum [1], 779 nM; in the data set with Plasmodium falciparum [2] it was 557 nM; in the data set on Plasmodium falciparum [2] (Plasmodium falciparum, 3D7), 446 nM. The CC50 in the data set with Huh-7 is > 100000 nM.
Regarding `Cc1cccc(N=C2NC(=O)/C(=C\c3ccc(N(C)C)cc3)S2)c1`, the EC50 with Plasmodium falciparum [1] is 1640 nM and 508 nM; in the data set on Plasmodium falciparum [2], 1180 nM; with Plasmodium falciparum [2] (Plasmodium falciparum, 3D7), 784 nM. In the data set with Huh-7, the half-maximal cytotoxic concentration (CC50) is > 100000 nM.
With `CCn1c(C=CN(C(C)=O)c2ccccc2)[n+](CC)c2cc(Cl)ccc21`, the 50% effective concentration (EC50) in the data set on Plasmodium falciparum [1] is 1580 nM; in the data set on Plasmodium falciparum [2], 2590 nM. The half-maximal cytotoxic concentration (CC50) with Huh-7 is > 100000 nM.
`C[n+]1c(C=CNc2ccccc2)n(-c2ccccc2)c2ccc(Cl)cc21` [listing 2 of 2 here]: the concentration giving a half-maximal response (EC50) in the data set on Plasmodium falciparum [1] amounted to 318 nM; with Plasmodium falciparum [2], 534 nM. For the same molecule, in the data set on Huh-7, the CC50 was found to be 23800 nM.
Consider `CC1=C(C=CC(C)C=NNC(=O)c2ccncc2)C(C)(C)CCC1` (stereo unspecified), for which the concentration for a half-maximal effect (EC50) was 863 nM with Plasmodium falciparum [1] (Plasmodium falciparum, W2); 1110 nM in the data set on Plasmodium falciparum [1]; 1420 nM with Plasmodium falciparum [2]; 896 nM in the data set on Plasmodium falciparum [2] (Plasmodium falciparum, 3D7). Besides, the CC50 in the data set with Huh-7 was > 100000 nM.
As to `CCN1C(=Cc2sc3ccccc3[n+]2C)C=Cc2cccc(C)c21`, the EC50 in the data set with Plasmodium falciparum [1] stood at 228 nM; in the data set on Plasmodium falciparum [2] it was 65.4 nM. Also, the half-maximal cytotoxic concentration (CC50) with Huh-7 came out at 27400 nM.
For `C=CC[n+]1c(C=C2C=CC=CN2C)sc2ccccc21` the same measures were 403 nM, 281 nM and > 100000 nM.
As to `COc1ccc2c(ccc(/C=C3\C=CC=CN3C)[n+]2C)c1`, the concentration giving a half-maximal response (EC50) turned out to be 886 nM in the data set with Plasmodium falciparum [1] (Plasmodium falciparum, W2); 524 nM with Plasmodium falciparum [1]; 581 nM with Plasmodium falciparum [2]; 316 nM with Plasmodium falciparum [2] (Plasmodium falciparum, 3D7). For the same molecule, in the data set with Huh-7, the CC50 was > 100000 nM.
With `CC[n+]1c(C=C2Sc3ccccc3N2CCO)sc2ccccc21`, the EC50 in the data set on Plasmodium falciparum [1] was determined as 511 nM; in the data set with Plasmodium falciparum [2], 336 nM. Further, the CC50 in the data set on Huh-7 is > 100000 nM.
On to `CC[n+]1c(C=CN(C)C)sc2ccccc21`, for which the EC50 with Plasmodium falciparum [1] amounted to 1360 nM; in the data set with Plasmodium falciparum [2] (Plasmodium falciparum, 3D7) it was 459 nM. In addition, the cytotoxic concentration (CC50) with Huh-7 came out at 27100 nM.
Take `COc1cc(/C=C2/SC(=Nc3ccccc3)NC2=O)ccc1OCc1ccccc1Cl`: the EC50 in the data set with Plasmodium falciparum [1] (Plasmodium falciparum, W2) came out at 494 nM; in the data set on Plasmodium falciparum [1] it was 522 nM; with Plasmodium falciparum [2], 692 nM; in the data set on Plasmodium falciparum [2] (Plasmodium falciparum, 3D7) it was 957 nM. Besides, the CC50 in the data set with Huh-7 is > 100000 nM.
As to `CCN1C(=Cc2sc3ccc(OC)cc3[n+]2CC)C=Cc2ccccc21`, the EC50 in the data set on Plasmodium falciparum [1] worked out at 208 nM; with Plasmodium falciparum [2], 20.4 nM. Besides, in the data set on Huh-7, the cytotoxic concentration (CC50) was found to be 24800 nM.
As to `CCN1C(=Cc2ccc3ccccc3[n+]2CC)C=Cc2sc3ccccc3c21`, the EC50 was 44 nM and 148 nM with Plasmodium falciparum [1]; 188 nM and 50.9 nM with Plasmodium falciparum [2]. Also, in the data set with Huh-7, the CC50 was 2970 nM and 27800 nM.
With `Cc1occc1C(=O)NN=C/C(Cl)=C/c1ccccc1`, the EC50 is 116 nM and 392 nM in the data set on Plasmodium falciparum [1]; 291 nM with Plasmodium falciparum [2]; 255 nM in the data set with Plasmodium falciparum [2] (Plasmodium falciparum, 3D7). Further, in the data set with Huh-7, the half-maximal cytotoxic concentration (CC50) was > 10000 nM and 64300 nM.
As for `C[n+]1ccc(C=Cc2ccc(O)cc2)cc1`, the values for the EC50 with Plasmodium falciparum [1] and in the data set on Plasmodium falciparum [2] were 593 nM and 1430 nM, respectively. The CC50 with Huh-7 was > 100000 nM.
In the case of `C=CCN1C=CC(=Cc2sc3ccccc3[n+]2C)c2ccccc21`, the figures for the concentration giving a half-maximal response (EC50) in the data set with Plasmodium falciparum [1] and with Plasmodium falciparum [2] were 115 nM and 89.7 nM, respectively. Also, the CC50 in the data set on Huh-7 was found to be 14200 nM.
As for `CCN1C(=Cc2sc3cc(NC(C)=O)ccc3[n+]2CC)C=Cc2cc(C)ccc21`, the EC50 is 581 nM in the data set with Plasmodium falciparum [1] and 161 nM in the data set on Plasmodium falciparum [2]. In the data set with Huh-7, the CC50 was > 90600 nM.
On to `C=CCN1C(=O)/C(=C2/Sc3ccc(OC)cc3N2C)SC1=Nc1ccccc1-c1ccccc1`, for which the concentration giving a half-maximal response (EC50) with Plasmodium falciparum [1] (Plasmodium falciparum, W2) is 488 nM; in the data set with Plasmodium falciparum [1], 838 nM; in the data set on Plasmodium falciparum [2], 2120 nM; in the data set on Plasmodium falciparum [2] (Plasmodium falciparum, 3D7), 1180 nM. In the data set on Huh-7, the CC50 is > 100000 nM.
For `CN1/C(=C/c2cccc[n+]2C)Sc2ccccc21`, in that order: 223 nM, 293 nM, 230 nM, 138 nM and > 100000 nM.
As for `CC[n+]1c(C=CC=C2N(C)c3ccccc3C2(C)C)sc2ccccc21`, the concentration giving a half-maximal response (EC50) turned out to be 520 nM in the data set with Plasmodium falciparum [1] (Plasmodium falciparum, W2) and 629 nM in the data set with Plasmodium falciparum [2] (Plasmodium falciparum, 3D7). Also, the cytotoxic concentration (CC50) with Huh-7 was > 10000 nM.
With `OCC[n+]1ccc(/C=C/c2c[nH]c3ccccc23)cc1`, the EC50 in the data set with Plasmodium falciparum [1] (Plasmodium falciparum, W2) is 554 nM; in the data set on Plasmodium falciparum [1] it was 396 nM; in the data set on Plasmodium falciparum [2], 343 nM; in the data set with Plasmodium falciparum [2] (Plasmodium falciparum, 3D7) it was 390 nM. Also, in the data set on Huh-7, the CC50 was > 100000 nM.
With `CCN(CC)c1ccc(C=Cc2cccc[n+]2CC)cc1`, the concentration for a half-maximal effect (EC50) stood at 131 nM in the data set on Plasmodium falciparum [1] and 88.5 nM in the data set on Plasmodium falciparum [2]. In addition, in the data set on Huh-7, the CC50 is 44900 nM.
For the molecule `CCN1/C(=C/c2ccc3cc(OC)ccc3[n+]2CC)Sc2ccc(NC(C)=O)cc21`, the EC50 in the data set on Plasmodium falciparum [1] (Plasmodium falciparum, W2) is 82.6 nM; in the data set with Plasmodium falciparum [1] it was 119 nM; in the data set on Plasmodium falciparum [2], 31.1 nM and 113 nM. Further, the 50% cytotoxic concentration (CC50) in the data set with Huh-7 was > 52000 nM.
In the case of `CCN1C(=Cc2sc3ccc(Cl)cc3[n+]2CC)C=Cc2cc(OC)ccc21`, the 50% effective concentration (EC50) with Plasmodium falciparum [1] was 91.8 nM; in the data set with Plasmodium falciparum [2], 16.7 nM. Further, the CC50 in the data set on Huh-7 turned out to be 11900 nM.
As to `C[n+]1ccccc1C=Cc1cc(Br)ccc1O` [listing 2 of 2 here], the concentration giving a half-maximal response (EC50) was found to be 308 nM in the data set with Plasmodium falciparum [1] and 466 nM with Plasmodium falciparum [2]. Moreover, the CC50 with Huh-7 was > 100000 nM.
`CCN(CC)C1SC=C(c2ccc([N+](=O)[O-])cc2)S1` (stereo unspecified): the EC50 is 911 nM and 390 nM in the data set on Plasmodium falciparum [1]; 549 nM in the data set on Plasmodium falciparum [2]; 446 nM in the data set on Plasmodium falciparum [2] (Plasmodium falciparum, 3D7). For the same molecule, the cytotoxic concentration (CC50) in the data set with Huh-7 is > 96000 nM.
